# Laboratory results taken from US11701379B2, “In vitro and in vivo intracellular delivery of siRNA via self-assembled nanopieces” (Rhode Island Hospital, priority 2018, dated 2023).
# System: MMP-13 mRNA
# Assay: MMP-13 molecular beacon validation in chondrocytes with/without IL-1β
# Type: cell-based, mouse
# Details: realtime rtPCR
# Procedure: Fluorescence labeled GAPDH molecular beacon and fluorescence labeled MMP-13 molecular beacon or fluorescence labeled scrambled molecular beacon delivered with Nanopieces was added into chondrocytes under standard cell culture conditions or stimulated with 10 ng/mL IL-1β (FIG. 29).
# Using an established method (Tyagi et al Nat. Biotech, 1998, 16:49-53), MBs were designed to target mouse MMP-13 or GAPDH mRNA with a fluorophore/quench pair. Scramble sequence MB (Scramble) was verified to not bind with any mouse mRNA via BLAST. In vitro delivery and validation: MBs were delivered into chondrocytes by Nanopieces. Specifically, after stimulation with IL-1β for 24 hours, chondrocytes were co-transfected GAPDH and scramble MBs or GAPDH and MMP-13 MBs via Nanopieces. Real time RT-PCR and fluorescence microscopy were used to verify the stimulation of MMP-13 expression and the successful fluorescence signal resulted from MMP-13 MB.
# To test the efficacy of mRNA detection in chondrocytes using MBs delivered by Nanopieces, primary mouse chondrocytes were transfected with MBs either with or without IL-1β treatment. Before IL-1β treatment, the housekeeping GAPDH MB was detected while the MMP-13 MB was not (FIG. 29, left panels). In contrast, after IL-1β treatment, both GAPDH MB and MMP-13 MB were detected, indicating the induction of MMP-13 mRNA levels by IL-1β (FIG. 29, right panels). […]
substance,measurement,value
IL-1β: cytokine used to stimulate chondrocytes,up-regulation of MMP-13 mRNA level,about 10 times
